Assay results as given in PubChem BioAssay AID588620 (NMMLSC, 2011).
Activity calls are given as the source filed them.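 The calls were made as follows: active = fitted half-maximal concentration below 30 µM for cell fluorescence in pump-free yeast, so likely self-fluorescent; inactive = the rest.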

Assay: concentration-dependent intrinsic compound fluorescence, S. cerevisiae AD/pABC3, flow cytometry, Cherry Pick1 hits, artefact control for antifungal efflux pump inhibitor project, dose response (AID 588620);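 also: red emission of unstained cells excited at 488 nm measured in PE-Texas Red channel; cell median fluorescence as percent of DMSO wells so 100% equals vehicle baseline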
Conditions: S. cerevisiae AD/pABC3 compound autofluorescence, flow cytometry; at 33.1 µM (top of the series)

| SMILES | fluorescence response, % of control |
| --- | --- |
| CC(C)(C)c1ccc(-n2ncc3c2CCCC3NC(=O)c2cnccn2)cc1 (stereo not drawn) | 90.8% (inactive) |
| CCC(=O)N1CCC2(CC1)Oc1ccc(Cl)cc1C(=O)C21CC(c2ccc(Cl)cc2)=NO1 (stereo not drawn) | 89.8% (inactive) |
| O=C(O)CCN1C(=O)/C(=C\c2ccc(-c3nc4ccccc4s3)o2)SC1=S | 102% (inactive) |
| COc1ccc(-c2sc3ccc(OC)cc3c2-c2ccc(OCCN3CCOCC3)cc2)cc1 | 96.3% (inactive) |
| NC1=NC[C@@H](Cc2ccc(O)cc2)N1CCCCC1CCCCC1 | 93.4% (inactive) |
| COc1ccc(C2=NCC(=O)N(CC(=O)NCc3ccco3)c3sc4c(c32)CCCC4)cc1 | 95.7% (inactive) |
| O=C(O)CCN1C(=O)/C(=C/c2ccc(-c3nc4ccccc4s3)o2)SC1=S | 234% (inactive) |
| O=c1[nH]c(C2CCN(S(=O)(=O)c3ccc4c(c3)OCCO4)CC2)nc2c1nnn2Cc1ccc(F)cc1 | 94.5% (inactive) |
| COc1ccc(-c2sc3ccccc3c2-c2ccc(OCCN(C)C)cc2)cc1 | 112% (inactive) |
| CCC1Nc2ncnc(N3CCN(c4ccccc4)CC3)c2N(Cc2ccccc2)C1=O (stereo not drawn) | 103% (inactive) |
| NC1=NC[C@H](Cc2ccccc2)N1CCCCC1CCCCC1 | 127% (inactive) |
| O=C1/C(=C\c2ccc(-c3ccccc3Cl)o2)SC(=S)N1CC1CCCO1 (stereo not drawn) | 150% (inactive) |
| Cc1ccc2sc(N(CCCN(C)C)C(=O)c3ccc(Br)s3)nc2c1C | 78.2% (inactive) |
| N#CC(C(=O)NCc1ccccc1)c1nc2ccccc2nc1N1CCCC1 (stereo not drawn) | 102% (inactive) |
| CCC1Nc2ncnc(N3CCN(c4ccccn4)CC3)c2N(Cc2ccc(Br)cc2)C1=O (stereo not drawn) | 85.4% (inactive) |
| O=C(NC(=Nc1nc2ccccc2o1)NC(=O)c1ccccc1)c1ccccc1 | 102% (inactive) |
| Cc1ccccc1S(=O)(=O)Nc1nc2ccccc2nc1N1CCc2ccccc2C1 | 103% (inactive) |

| SMILES | fluorescence response, % of control |
| --- | --- |
| O=S(=O)(NCCc1cn2ccccc2n1)c1ccc(F)c(C(F)(F)F)c1 | 118% (inactive) |
| O=C(Nc1ccccc1C(=O)O)c1ccc(NC(=O)c2ccc(Br)o2)cc1 | 107% (inactive) |
| COc1cc(OC)cc(-c2sc3ccc(OC)cc3c2-c2ccc(OCCN3CCCCC3)cc2)c1 | 122% (inactive) |
| CCn1ncc(Br)c1C(=O)Nc1sc2c(c1C(=O)OC)CCC2 | 117% (inactive) |
| COc1ccc2c(-c3ccc(OCCN4CCOCC4)cc3)c(-c3ccccc3OC)sc2c1 | 102% (inactive) |
| COc1cc2c(cc1NC(=O)CSc1nnc(Cc3cccs3)n1Cc1ccco1)oc1ccccc12 | 85.8% (inactive) |
| Cc1ccc(OCc2cc(C(=O)NCC(C)(C)N3CCOCC3)no2)cc1C | 116% (inactive) |
| CCN(CC)C(=O)CSc1nnc(-c2ccncc2)n1N | 127% (inactive) |
| COc1ccc(CC(=O)Nc2ccc(NC(=O)c3ccc(Br)cc3)cc2)cc1OC | 134% (inactive) |
| CC1(C)CC2(CC(c3cccs3)c3cc(Cl)c(O)cc3O2)NC(=S)N1 (stereo not drawn) | 113% (inactive) |
| O=C(O)C(c1ccccc1)N1C(=O)/C(=C\c2ccc(O)c(O)c2)SC1=S (stereo not drawn) | 226% (inactive) |
| COc1cc2c(cc1OC)C(=O)N1[C@H]3c4cc(C)ccc4OC[C@@H]3[C@H](c3ccccc3)[C@]1(C)C(=O)N2 | 99.3% (inactive) |
| Cc1ccsc1-c1nc(C(N)=O)c2[nH]c(=O)n(-c3ccc(Cl)cc3)c2n1 | 102% (inactive) |
| Cc1ccc(-c2c3c([nH]c(=S)c2C#N)CCCC3)o1 | 162% (inactive) |
| O=C(O)c1ccc(-c2ccc(/C=c3/sc4nc5ccccc5n4c3=O)o2)cc1Cl | 365% (inactive) |
| Cn1cc(C(c2ccccn2)c2cn(C)c3ccccc23)c2ccccc21 | 97.1% (inactive) |
